From patent US11291642B2, “Dimethyl fumarate particles and pharmaceutical compositions thereof” (BIOGEN MA INC., priority 2015, dated 2022)
Structures can show the parent of a compound that is named as a salt.

Assays:
[1] = Comparison of unmilled coarse DMF versus wet-milled DMF for enteric coating in fluid bed; assay type: physicochemical; conditions: for Coated crystals: enterically coated particles made from the named API
Description: The enteric coated DMF is prepared using a Glatt GPCG-2 fluid bed granulator with a 6′ Wurster column. Dissolution was run with USP apparatus II by the Pharmaceutical Analytical Development Department with the following method.
DMF first de-lumped with a Frewitt Comill with screen size 1.0 mm. Then, it is mixed with silicon dioxide (Aerosil) and being fluidize in the fluid bed granulator for 5 minutes.
Eudragit L100 and triethyl citrate is used for coating an enteric layer for stomach acid protection on the DMF API particles. Samples were taken at different L100 weight gain to compare gastric protection capability.
Unmilled coarse DMF were coated according to the method of described in Example 5. Various properties of the unmilled coarse DMF and enterically coated DMF are compared with wet-milled DMF and enterically coated DMF made from wet-milled DMF.

[2] = Mean particle size of coarse DMF from current synthesis (method not given); assay type: physicochemical; conditions: DMF isolated from current chemical synthesis, before size reduction

## COC(=O)/C=C/C(=O)OC [Unmilled coarse API, dimethyl fumarate]
[1]
  Coated crystals: Significant agglomeration
[1]; listed as unmilled coarse DMF particles
  Coated crystals: Significant agglomeration of the coated particles
[1]; fluid bed coating process
  Flow of API particle in fluid bed: Uneven flow due to API plate
[1]; uncoated API particles
  Particle morphology: 2D plate structure
[2]
  typical mean particle size: 500-600 microns
